{"source": "patent EP1670820B1", "about": "“ANTIGENS FOR AN EAST COAST FEVER VACCINE” (International Livestock Research Institute ( ILRI), priority 2003, dated 2005)", "system": "peptide pulsed autologous iSF", "experiment": "51Chromium release assay: CTL lysis of peptide pulsed autologous iSF", "format": "cell-based, cattle", "conditions": "autologous iSF pulsed overnight with peptide; BW014 polyclonal CD8+ CTL line (FIG. 9)"}
{"sequence": "SLVCVLMKC [Tp2 peptide 76B]", "values": [{"measurement": "lysis of iSF pulsed with peptide", "value": "background levels of lysis"}]}
